Measured values as given in publication PMC13626384 (Journal of medicinal chemistry, 2025).
Read-outs that look alike come from different tables or passages of the source.

Experiments:
D283-med cell line = assay: Cytotoxicity against D283-med cells; format: cell-based, human
SF188 cell line = assay: Cytotoxicity against SF188 cells; format: cell-based, human
H460 cell line = assay: Cytotoxicity against H460 cells; format: cell-based; details: read-out: H460 IC50; non-small cell lung cancer cell line
[1] = PAMPA-BBB permeability assay
[2] = read-out: D283-med IC50, medulloblastoma cell line
[3] = read-out: SF188 IC50, glioblastoma cell line
[4] = Homo sapiens, D283 Med, read-out: D283-med IC50, medulloblastoma cell line
[5] = Homo sapiens, SF-188, read-out: SF188 IC50, glioblastoma cell line

Compound “(5S,8S)-3^2,3^3,3^5,3^6-Tetrafluoro-8-isopropyl-9-methyl-N-((S)-4-methyl-1-((R)-2-methyloxiran-2-yl)-1-oxopentan-2-yl)-7,10-dioxo-2-thia-6,9-diaza-1(1,3),3(1,4)-dibenzenacycloundecaphane-5-carboxamide 2,2-dioxide [Compound 30]” has an IC50 (D283-med cell line; [2]) of 1470 nM, an IC50 (SF188 cell line; [3]) of 1680 nM and an IC50 (H460 cell line) of 3200 nM.
For `CC(C)C[C@H](NC(=O)CNC(=O)Cc1c(F)c(F)c(F)c(F)c1F)C(=O)[C@@]1(C)CO1` [Compound 7, N-((S)-4-Methyl-1-((R)-2-methyloxiran-2-yl)-1-oxopentan-2-yl)-2-(2-(perfluorophenyl)acetamido)acetamide], the IC50 (D283-med cell line; [4]) was > 10000 nM and the IC50 (SF188 cell line; [5]) was > 10000 nM.
With `CCCCCC(=O)N[C@H](C(=O)N[C@@H](CCS(C)(=O)=O)C(=O)N[C@@H](CC(C)C)C(=O)[C@@]1(C)CO1)C(C)C` [Carmaphycin B, reference compound] the IC50 (D283-med cell line; [2]) was 13 ± 2 nM, the IC50 (SF188 cell line; [3]) was 19 ± 2 nM and the IC50 (H460 cell line) was 111 ± 30 nM.
With “(S)-10,10-Dimethyl-N-((S)-4-methyl-1-((R)-2-methyloxiran-2-yl)-1-oxopentan-2-yl)-8,11-dioxo-2-oxa-9,12-diaza-1(1,4)-benzenacyclotetradecaphane-13-carboxamide [Compound 34]” the IC50 (D283-med cell line; [2]) was 2080 nM, the IC50 (SF188 cell line; [3]) was 2910 nM and the IC50 (H460 cell line) was 4520 nM.
Compound “(5S,8S)-32,33,35,36-Tetrafluoro-8-isopropyl-N-((S)-4-methyl-1-((R)-2-methyloxiran-2-yl)-1-oxopentan-2-yl)-7,10-dioxo-2-thia-6,9-diaza-1,3(1,4)-dibenzenacyclododecaphane-5-carboxamide [Compound 18]” has an IC50 (D283-med cell line; [2]) of 232 ± 12 nM, an IC50 (SF188 cell line; [3]) of 239 ± 10 nM and an IC50 (H460 cell line) of 1080 nM.
Compound `CC(C)C[C@@H](NC(=O)[C@@H]1Cc2ccc(cc2)S(=O)(=O)CCCCCC(=O)NC(C)(C)C(=O)N1)C(=O)[C@@]1(C)CO1` [Compound 37, (S)-10,10-Dimethyl-N-((R)-4-methyl-1-((R)-2-methyloxiran-2-yl)-1-oxopentan-2-yl)-8,11-dioxo-2-thia-9,12-diaza-1(1,4)-benzenacyclotetradecaphane-13-carboxamide 2,2-dioxide] has an IC50 (D283-med cell line; [2]) of 590 ± 20 nM, an IC50 (SF188 cell line; [3]) of 4420 nM and an IC50 (H460 cell line) of 1720 nM.
Compound `CC(=O)O[C@@H](C)[C@@H]1NC(=O)Cc2cccc(c2)S(=O)(=O)c2c(F)c(F)c(c(F)c2F)C[C@@H](C(=O)N[C@@H](CC(C)C)C(=O)[C@@]2(C)CO2)NC1=O` [Compound 28, (S)-1-((5S,8S)-3^2,3^3,3^5,3^6-Tetrafluoro-5-(((S)-4-methyl-1-((R)-2-methyloxiran-2-yl)-1-oxopentan-2-yl)carbamoyl)-2,2-dioxido-7,10-dioxo-2-thia-6,9-diaza-1(1,3),3(1,4)-dibenzenacycloundecaphane-8-yl)ethyl acetate] has an IC50 (D283-med cell line; [2]) of 44 ± 6 nM, an IC50 (SF188 cell line; [3]) of 148 ± 35 nM and an IC50 (H460 cell line) of 549 ± 21 nM.
With `CC(C)C[C@H](NC(=O)[C@@H]1Cc2c(F)c(F)c(c(F)c2F)S(=O)(=O)c2cccc(c2)CC(=O)NCC(=O)N1)C(=O)[C@@]1(C)CO1` [Compound 32, (S)-32,33,35,36-Tetrafluoro-N-((S)-4-methyl-1-((R)-2-methyloxiran-2-yl)-1-oxopentan-2-yl)-7,10-dioxo-2-thia-6,9-diaza-1(1,3),3(1,4)-dibenzenacycloundecaphane-5-carboxamide 2,2-dioxide] the IC50 (D283-med cell line; [2]) was 563 ± 46 nM, the IC50 (SF188 cell line; [3]) was 7230 nM and the IC50 (H460 cell line) was 4540 nM.
For `Cc1ncc2n1-c1ccc(Cl)cc1C(c1ccccc1F)=NC2` [Midazolam, reference compound], the Papp ([1]; PAMPA) was 6.8 ×10⁻⁶ cm/s and the recovery ([1]; PAMPA) was 84%.
`CC(C)C[C@H](NC(=O)[C@@H]1Cc2c(F)c(F)c(c(F)c2F)S(=O)(=O)c2ccc(cc2)CCC(=O)N[C@@H](C(C)C)C(=O)N1)C(=O)[C@@]1(C)CO1` [Compound 29, (5S,8S)-3^2,3^3,3^5,3^6-Tetrafluoro-8-isopropyl-N-((S)-4-methyl-1-((R)-2-methyloxiran-2-yl)-1-oxopentan-2-yl)-7,10-dioxo-2-thia-6,9-diaza-1,3(1,4)-dibenzenacyclododecaphane-5-carboxamide 2,2-dioxide] gave an IC50 (D283-med cell line; [2]) of 146 ± 29 nM, an IC50 (SF188 cell line; [3]) of 150 ± 12 nM and an IC50 (H460 cell line) of 470 ± 154 nM.
In the case of `CC(C)C[C@H](NC(=O)C(CSc1c(F)c(F)c(F)c(F)c1F)NC(=O)[C@@H](NC(=O)Cc1c(F)c(F)c(F)c(F)c1F)C(C)C)C(=O)[C@@]1(C)CO1` (stereo in doubt) [Compound 3, (S)-3-Methyl-N-((S)-1-(((S)-4-methyl-1-((R)-2-methyloxiran-2-yl)-1-oxopentan-2-yl)amino)-1-oxo-3-((perfluorophenyl)thio)propan-2-yl)-2-(2-(perfluorophenyl)acetamido)butanamide], the IC50 (D283-med cell line; [4]) is reported as 102 ± 7 nM and the IC50 (SF188 cell line; [5]) is reported as 213 ± 10 nM.
In the case of `CC(C)C[C@H](NC(=O)[C@@H]1Cc2c(F)c(F)c(c(F)c2F)Sc2cccc(c2)CC(=O)N(C)[C@@H](C(C)C)C(=O)N1)C(=O)[C@@]1(C)CO1` [Compound 19, (5S,8S)-3^2,3^3,3^5,3^6-Tetrafluoro-8-isopropyl-9-methyl-N-((S)-4-methyl-1-((R)-2-methyloxiran-2-yl)-1-oxopentan-2-yl)-7,10-dioxo-2-thia-6,9-diaza-1(1,3),3(1,4)-dibenzenacycloundecaphane-5-carboxamide], the IC50 (D283-med cell line; [2]) is reported as 10800 nM, the IC50 (SF188 cell line; [3]) is reported as 12300 nM and the IC50 (H460 cell line) is reported as > 15000 nM.
Compound `CC(C)C[C@H](NC(=O)[C@@H]1Cc2c(F)c(F)c(c(F)c2F)Sc2ccc(cc2)CC(=O)N[C@@H](C(C)C)C(=O)N1)C(=O)[C@@]1(C)CO1` [Compound 9, (5S,8S)-3^2,3^3,3^5,3^6-Tetrafluoro-8-isopropyl-N-((S)-4-methyl-1-((R)-2-methyloxiran-2-yl)-1-oxopentan-2-yl)-7,10-dioxo-2-thia-6,9-diaza-1,3(1,4)-dibenzenacycloundecaphane-5-carboxamide] has an IC50 (SF188 cell line; [3]) of 87 nM and an IC50 (H460 cell line) of 754 nM.
Compound `CC(C)C[C@H](NC(=O)[C@@H]1Cc2c(F)c(F)c(c(F)c2F)Sc2cccc(c2)CC(=O)N[C@@H](C(C)(C)C)C(=O)N1)C(=O)[C@@]1(C)CO1` [Compound 12, (5S,8S)-8-(Tert-butyl)-3^2,3^3,3^5,3^6-tetrafluoro-N-((S)-4-methyl-1-((R)-2-methyloxiran-2-yl)-1-oxopentan-2-yl)-7,10-dioxo-2-thia-6,9-diaza-1(1,3),3(1,4)-dibenzenacycloundecaphane-5-carboxamide] has an IC50 (D283-med cell line; [2]) of 432 ± 74 nM, an IC50 (SF188 cell line; [3]) of 507 ± 134 nM and an IC50 (H460 cell line) of 2470 nM.
With `CC(C)C[C@H](NC(=O)[C@@H]1Cc2c(F)c(F)c(c(F)c2F)Sc2cccc(c2)CC(=O)N2C[C@H]3[C@@H]([C@H]2C(=O)N1)C3(C)C)C(=O)[C@@]1(C)CO1` [Compound 13, (61S,64S,65R,9S)-1^2,1^3,1^5,1^6-Tetrafluoro-6^6,6^6-dimethyl-N-((S)-4-methyl-1-((R)-2-methyloxiran-2-yl)-1-oxopentan-2-yl)-5,7-dioxo-2-thia-6^3,8-diaza-6(3,4)-bicyclo[3.1.0]hexana-1(1,4),3(1,3)-dibenzenacyclodecaphane-9-carboxamide] the IC50 (D283-med cell line; [2]) was > 15000 nM, the IC50 (SF188 cell line; [3]) was > 15000 nM and the IC50 (H460 cell line) was > 15000 nM.
`CC(C)C[C@H](NC(=O)CNC(=O)c1cc(Cl)ccc1Cl)C(=O)[C@@]1(C)CO1` [Compound 8, 2,5-Dichloro-N-(2-(((S)-4-methyl-1-((R)-2-methyloxiran-2-yl)-1-oxopentan-2-yl)amino)-2-oxoethyl)benzamide] gave an IC50 (D283-med cell line; [4]) of 3700 ± 270 nM and an IC50 (SF188 cell line; [5]) of 532 ± 23 nM.
`CC(C)C[C@H](NC(=O)[C@@H]1Cc2c(F)c(F)c(c(F)c2F)Sc2cccc(c2)CC(=O)NC(C)(C)C(=O)N1)C(=O)[C@@]1(C)CO1` [Compound 20, (S)-3^2,3^3,3^5,3^6-Tetrafluoro-8,8-dimethyl-N-((S)-4-methyl-1-((R)-2-methyloxiran-2-yl)-1-oxopentan-2-yl)-7,10-dioxo-2-thia-6,9-diaza-1(1,3),3(1,4)-dibenzenacycloundecaphane-5-carboxamide] showed an IC50 (D283-med cell line; [2]) of 662 ± 44 nM, an IC50 (SF188 cell line; [3]) of 611 ± 85 nM and an IC50 (H460 cell line) of 828 ± 57 nM.
In the case of `CC(C)C[C@H](NC(=O)[C@@H]1Cc2c(F)c(F)c(c(F)c2F)S(=O)(=O)c2cccc(c2)CC(=O)N[C@@H](C(C)C)CC(=O)N1)C(=O)[C@@]1(C)CO1` [Compound 26, (5S,9R)-3^2,3^3,3^5,3^6-Tetrafluoro-9-isopropyl-N-((S)-4-methyl-1-((R)-2-methyloxiran-2-yl)-1-oxopentan-2-yl)-7,11-dioxo-2-thia-6,10-diaza-1(1,3),3(1,4)-dibenzenacyclododecaphane-5-carboxamide 2,2-dioxide], the IC50 (D283-med cell line; [2]) is reported as 472 ± 36 nM, the IC50 (SF188 cell line; [3]) is reported as 673 ± 50 nM and the IC50 (H460 cell line) is reported as 2360 nM.
With `CC(C)C[C@H](NC(=O)[C@@H](CSc1c(F)c(F)c(F)c(F)c1F)NC(=O)Cc1c(F)c(F)c(F)c(F)c1F)C(=O)[C@@]1(C)CO1` [Compound 5, (S)-N-((S)-4-Methyl-1-((R)-2-methyloxiran-2-yl)-1-oxopentan-2-yl)-2-(2-(perfluorophenyl)acetamido)-3-((perfluorophenyl)thio)propenamide] the IC50 (D283-med cell line; [2]) was > 10000 nM, the IC50 (SF188 cell line; [3]) was > 10000 nM and the IC50 (H460 cell line) was > 10000 nM.
For `CC(C)C[C@H](NC(=O)[C@@H](CSc1c(F)c(F)c(F)c(F)c1F)NC(=O)c1cc(Cl)ccc1Cl)C(=O)[C@@]1(C)CO1` [Compound 6, 2,5-Dichloro-N-((S)-1-(((S)-4-methyl-1-((R)-2-methyloxiran-2-yl)-1-oxopentan-2-yl)amino)-1-oxo-3-((perfluorophenyl)thio)propan-2-yl)benzamide], the IC50 (D283-med cell line; [4]) was > 10000 nM and the IC50 (SF188 cell line; [5]) was 4080 ± 770 nM.
In the case of `Cn1c(=O)c2[nH]cnc2n(C)c1=O` [Theophylline, reference compound], the recovery ([1]; PAMPA, % Recovery, PAMPA-BBB) is reported as 96%.
For `CCCCCC(=O)N[C@H](C(=O)NC(CSc1c(F)c(F)c(F)c(F)c1F)C(=O)N[C@@H](CC(C)C)C(=O)[C@@]1(C)CO1)C(C)C` (stereo in doubt) [Compound 1, N-((S)-3-Methyl-1-(((S)-1-(((S)-4-methyl-1-((R)-2-methyloxiran-2-yl)-1-oxopentan-2-yl)amino)-1-oxo-3-((perfluorophenyl)thio)propan-2-yl)amino)-1-oxobutan-2-yl)hexanamide], the “Mean Permeability” value ([1]; PAMPA-BBB) was 0.63 10^−6 cm/sec, the IC50 (D283-med cell line; [4]) was 236 ± 27 nM and the IC50 (SF188 cell line; [5]) was 143 ± 18 nM.
